Patent US12612407B2, “Imidazo[2,1-f][1,2,4]triazin-4-amine derivatives as TLR7 agonist” (BEIGENE, LTD., priority 2020, dated 2026)

Molecular target: T1, human TLR7 (Homo sapiens, UniProt Q9NYK1)
T1 construct: host or cells: HEK293 (HEK-Blue hTLR7)
T1 sequence (Q9NYK1 27-1049): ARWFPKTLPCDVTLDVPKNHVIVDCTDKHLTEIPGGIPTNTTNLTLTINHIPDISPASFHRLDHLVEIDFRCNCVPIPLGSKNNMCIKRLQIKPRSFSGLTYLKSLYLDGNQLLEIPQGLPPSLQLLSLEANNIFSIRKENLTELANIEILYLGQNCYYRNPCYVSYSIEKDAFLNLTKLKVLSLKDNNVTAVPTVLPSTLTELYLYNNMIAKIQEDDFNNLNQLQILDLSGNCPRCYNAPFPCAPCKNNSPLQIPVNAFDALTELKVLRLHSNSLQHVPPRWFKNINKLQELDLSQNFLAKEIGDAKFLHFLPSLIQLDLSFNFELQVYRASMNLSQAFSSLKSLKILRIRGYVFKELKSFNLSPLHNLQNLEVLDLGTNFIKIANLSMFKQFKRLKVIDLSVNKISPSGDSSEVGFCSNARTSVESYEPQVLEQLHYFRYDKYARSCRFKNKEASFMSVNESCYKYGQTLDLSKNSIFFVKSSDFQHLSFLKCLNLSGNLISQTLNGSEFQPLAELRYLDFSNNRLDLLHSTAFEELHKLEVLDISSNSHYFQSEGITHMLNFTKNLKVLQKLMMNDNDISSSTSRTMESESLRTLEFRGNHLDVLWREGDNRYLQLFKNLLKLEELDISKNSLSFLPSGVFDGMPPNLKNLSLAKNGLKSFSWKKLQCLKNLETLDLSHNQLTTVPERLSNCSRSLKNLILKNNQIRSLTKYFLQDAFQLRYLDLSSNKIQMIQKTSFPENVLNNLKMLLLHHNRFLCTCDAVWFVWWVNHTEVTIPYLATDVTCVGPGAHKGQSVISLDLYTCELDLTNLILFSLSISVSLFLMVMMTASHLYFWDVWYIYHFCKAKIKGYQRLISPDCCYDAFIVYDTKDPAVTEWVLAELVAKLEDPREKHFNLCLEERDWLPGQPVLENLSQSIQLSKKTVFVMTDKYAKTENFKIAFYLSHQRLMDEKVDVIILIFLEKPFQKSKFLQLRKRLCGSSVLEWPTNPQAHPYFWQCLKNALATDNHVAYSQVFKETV
Test: HEK293-Blue hTLR7 Reporter Assay (QUANTI-BLUE, SEAP readout)
Format: cell-based
Conditions: HEK-Blue-hTLR7 cells, 24 hrs treatment, Table 1, B1-B232
Protocol: HEK293-Blue hTLR7 Reporter Assay: HEK-Blue-hTLR7 cell line (Invivogen, Cat. No. hkb-htlr7) was designed so that the expression of the secreted embryonic alkaline phosphatase (SEAP) was induced by activating NF-κ and AP-1 via stimulating human TLR7 with TLR7 agonists. HEK-Blue-hTLR7 cells were seeded at a density of 4×10^4 cells/well in a volume of 180 μL in a 96-well plate in DMEM (Cat. No. 11965-092) supplemented with 10% (v/v) heat-inactivated fetal bovine serum (FBS) (Gibco, 10099-1441), 100 U/ml penicillin and 100 μg/ml streptomycin (Gibco, 15140122) containing 50 U/mL penicillin, […] and 10% (v/v) heat-inactivated fetal bovine serum. The cells were settled for 5 hrs, then treated with increasing amounts of tested compounds at 37° C. for 24 hrs. Then 20 μL of the supernatant from each well was incubated with 180 μL Quanti-blue substrate solution at 37° C. for 10-30 mins before the activity of the SEAP was determined at 620-655 nm using a spectrophotometer. The EC50 value for each compound was calculated with GraphPad Prism software using the sigmoidal dose-response function.

Compound | EC50
CCCCOc1nc(N)c2ncc(Cc3ccc(C4CCNCC4)cc3)n2n1 [Compound B3, 2-butoxy-7-(4-(piperidin-4-yl)benzyl)imidazo[2,1-f][1,2,4]triazin-4-amine] | 327 nM
CCCCOc1nc(N)c2ncc(Cc3cnc(N4CCC(N)CC4)c(C)c3)n2n1 [Compound B60, 7-((6-(4-aminopiperidin-1-yl)-5-methylpyridin-3-yl)methyl)-2-butoxyimidazo[2,1-f][1,2,4]triazin-4-amine] | 50 nM
CCC[C@@H](C)Nc1nc(N)c2ncc(Cc3cnc(N4CCC(N(C)C)CC4)c(C)c3)n2n1 (single isomer, unassigned) [Compound B185] | 25 nM
CCC[C@H](C)Oc1nc(N)c2ncc(Cc3cnc(N4CCN(CCO)CC4)c(C)c3)n2n1 [Compound B199, (S)-2-(4-(5-((4-amino-2-(pentan-2-yloxy)imidazo[2,1-f][1,2,4]triazin-7-yl)methyl)-3-methylpyridin-2-yl)piperazin-1-yl)ethan-1-ol] | 8.1 nM
CCCCOc1nc(N)c2ncc(Cc3ccc(N4CCNCC4)c(C(C)C)c3)n2n1 [Compound B90, 2-butoxy-7-(3-isopropyl-4-(piperazin-1-yl)benzyl)imidazo[2,1-f][1,2,4]triazin-4-amine] | 2360 nM
CCCCOc1nc(N)c2ncc(Cc3cnc(N4CCN(C(C)=O)CC4)c(C)c3)n2n1 [Compound B57, 1-(4-(5-((4-amino-2-butoxyimidazo[2,1-f][1,2,4]triazin-7-yl)methyl)-3-methylpyridin-2-yl)piperazin-1-yl)ethan-1-one] | 3800 nM
CCCC(C)Nc1nc(N)c2ncc(Cc3cnc(N4CCNCC4)c(C)c3)n2n1 (stereo not drawn) [Compound B150, 7-((5-methyl-6-(piperazin-1-yl)pyridin-3-yl)methyl)-N2-(pentan-2-yl)imidazo[2,1-f][1,2,4]triazine-2,4-diamine] | 2.5 nM
CCC[C@@H](CC)Oc1nc(N)c2ncc(Cc3cnc(N4CCNCC4)c(C)c3)n2n1 (single isomer, unassigned) [Compound B225] | 26 nM
CCCCOc1nc(N)c2ncc(Cc3cnc(N4CCN(C(=O)CNC)CC4)c(C)c3)n2n1 [Compound B32, 1-(4-(5-((4-amino-2-butoxyimidazo[2,1-f][1,2,4]triazin-7-yl)methyl)-3-methylpyridin-2-yl)piperazin-1-yl)-2-(methylamino)ethan-1-one] | 66 nM
COCCOCCOc1nc(N)c2ncc(Cc3cnc(N4CCNCC4)c(C)c3)n2n1 [Compound B119, 2-(2-(2-methoxyethoxy)ethoxy)-7-((5-methyl-6-(piperazin-1-yl)pyridin-3-yl)methyl)imidazo[2,1-f][1,2,4]triazin-4-amine] | > 10000 nM
CC[C@@H](C)Oc1nc(N)c2ncc(Cc3cnc(N4CCN(C(=O)CNC)CC4)c(C)c3)n2n1 [Compound B159, (R)-1-(4-(5-((4-amino-2-(sec-butoxy)imidazo[2,1-f] [1,2,4]triazin-7-yl)methyl)-3-methylpyridin-2-yl)piperazin-1-yl)-2-(methylamino)ethan-1-one] | 48 nM
CCCCOc1nc(N)c2ncc(Cc3ccc(C4CCNCC4)c(C)c3)n2n1 [Compound B64, 2-butoxy-7-(3-methyl-4-(piperidin-4-yl)benzyl)imidazo[2,1-f][1,2,4]triazin-4-amine] | 448 nM
CCCCCCCCCCCCCCCCCC(=O)N1CCN(c2ncc(Cc3cnc4c(N)nc(OCCCC)nn34)cc2C)CC1 [Compound B129, 1-(4-(5-((4-amino-2-butoxyimidazo[2,1-f][1,2,4]triazin-7-yl)methyl)-3-methylpyridin-2-yl)piperazin-1-yl)octadecan-1-one] | > 10000 nM
CCCCOc1nc(N)c2ncc(Cc3ccc(N4CCNCC4)c(OC(F)(F)F)c3)n2n1 [Compound B27, 2-butoxy-7-(4-(piperazin-1-yl)-3-(trifluoromethoxy)benzyl)imidazo[2,1-f][1,2,4]triazin-4-amine] | 971 nM
COCCOc1nc(N)c2ncc(Cc3cnc(N4CCNCC4)c(Cl)c3)n2n1 [Compound B5, 7-((5-chloro-6-(piperazin-1-yl)pyridin-3-yl)methyl)-2-(2-methoxyethoxy)imidazo[2,1-f][1,2,4]triazin-4-amine] | 1230 nM
CCCCNc1nc(N)c2ncc(Cc3ccc(C4CCNCC4)cc3)n2n1 [Compound B18, N2-butyl-7-(4-(piperidin-4-yl)benzyl)imidazo[2,1-f][1,2,4]triazine-2,4-diamine] | 171 nM
CCCCOc1nc(N)c2ncc(Cc3cnc(N4CCN(C(=O)CN(C)C)CC4)c(C)c3)n2n1 [Compound B12, 1-(4-(5-((4-amino-2-butoxyimidazo[2,1-f][1,2,4]triazin-7-yl)methyl)-3-methylpyridin-2-yl)piperazin-1-yl)-2-(dimethylamino)ethan-1-one] | 44 nM
CCCCOc1nc(N)c2ncc(Cc3cnc(N4CCC(N(C)C)CC4)c(C)c3)n2n1 [Compound B78, 2-butoxy-7-((6-(4-(dimethylamino)piperidin-1-yl)-5-methylpyridin-3-yl)methyl)imidazo[2,1-f][1,2,4]triazin-4-amine] | 47 nM
CCCC(CCC)Nc1nc(N)c2ncc(Cc3cnc(N4CCC(N(C)C)CC4)c(C)c3)n2n1 [Compound B184, 7-((6-(4-(dimethylamino)piperidin-1-yl)-5-methylpyridin-3-yl)methyl)-N2-(heptan-4-yl)imidazo[2,1-f][1,2,4]triazine-2,4-diamine] | 3.6 nM
CCCCCc1nc(N)c2ncc(Cc3cnc(N4CCNCC4)c(C)c3)n2n1 [Compound B180, 7-((5-methyl-6-(piperazin-1-yl)pyridin-3-yl)methyl)-2-pentylimidazo[2,1-f][1,2,4]triazin-4-amine] | 270 nM
CCC(CC)Oc1nc(N)c2ncc(Cc3cnc(N4CCN(C(=O)CN(C)C)CC4)c(C)c3)n2n1 [Compound B200, 1-(4-(5-((4-amino-2-(pentan-3-yloxy)imidazo[2,1-f][1,2,4]triazin-7-yl)methyl)-3-methylpyridin-2-yl)piperazin-1-yl)-2-(dimethylamino)ethan-1-one] | 25 nM
CCC[C@H](C)Oc1nc(N)c2ncc(Cc3cnc(N4CCN(C(=O)CNCC(C)C)CC4)c(C)c3)n2n1 [Compound B212, (S)-1-(4-(5-((4-amino-2-(pentan-2-yloxy)imidazo[2,1-f][1,2,4]triazin-7-yl)methyl)-3-methylpyridin-2-yl)piperazin-1-yl)-2-(isobutylamino)ethan-1-one] | 6.2 nM
N2-methyl-7-((5-methyl-6-(piperazin-1-yl)pyridin-3-yl)methyl)-N2-propylimidazo[2,1-f][1,2,4]triazine-2,4-diamine [Compound B84] | 1000 nM
CCCCOc1nc(N)c2ncc(Cc3cnc(N4CCNC[C@@H]4C)c(C)c3)n2n1 [Compound B73, (S)-2-butoxy-7-((5-methyl-6-(2-methylpiperazin-1-yl)pyridine-3-yl)methyl)imidazo[2,1-f][1,2,4]triazin-4-amine] | 532 nM
CC[C@H](C)Oc1nc(N)c2ncc(Cc3cnc(N4CCNCC4)c(C)c3)n2n1 [Compound B158, (S)-2-(sec-butoxy)-7-((5-methyl-6-(piperazin-1-yl)pyridin-3-yl)methyl)imidazo[2,1-f][1,2,4]triazin-4-amine] | 6.5 nM
CCC(CC)Nc1nc(N)c2ncc(Cc3cnc(N4CCN(C(=O)CN(C)C)CC4)c(C)c3)n2n1 [Compound B211, 1-(4-(5-((4-amino-2-(pentan-3-ylamino)imidazo[2,1-f][1,2,4]triazin-7-yl)methyl)-3-methylpyridin-2-yl)piperazin-1-yl)-2-(dimethylamino)ethan-1-one] | 7.7 nM
COCCOCCOCCOCCOc1nc(N)c2ncc(Cc3cnc(N4CCNCC4)c(C)c3)n2n1 [Compound B100, 2-((2,5,8,11-tetraoxatridecan-13-yl)oxy)-7-((5-methyl-6-(piperazin-1-yl)pyridin-3-yl)methyl)imidazo[2,1-f][1,2,4]triazin-4-amine] | > 10000 nM
